Measurements from the supplement of paper PMC11061612.

How the values were obtained:
Experiment in all cases: Bliss excess, mean over the matrix (fraction); higher = more synergy
[1] = system: NCCIT (Other Solid Carcinomas)
Summary of the method: (§1)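 Cell lines in DMEM/F12 or RPMI with 10% FBS were plated in 1536-well plates, held 24 hours at 37°C, 5% CO2, then given two-drug dose matrices for 72 hours (DMSO typically 0.2%). Viability was read by CellTiter-Glo 2.0 luminescence and scaled as inhibition from 0 (vehicle wells) to 1 (blank wells). Combination Emax is the second-highest inhibition in the matrix; Bliss excess is observed combination effect minus expected EA + EB − EA·EB, EA and EB being single-agent effects.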

[2] = system: SUP-B15 (B-Lymphoblastic Leukemia)
Summary of the method: as §1

[3] = system: VMRC-RCZ (Kidney Carcinoma)
Summary of the method: as §1

[4] = system: 8505C (Thyroid Gland Carcinoma)
Summary of the method: as §1

M059J (Glioblastoma) = system: M059J (Glioblastoma)
Summary of the method: as §1

[5] = system: KMS-12-BM (Plasma Cell Myeloma)
Summary of the method: as §1

[6] = system: ST486 (Burkitt's Lymphoma)
Summary of the method: as §1

[7] = system: MN-60 (B-Lymphoblastic Leukemia)
Summary of the method: as §1

[8] = system: KYSE-270 (Esophageal Squamous Cell Carcinoma)
Summary of the method: as §1

[9] = system: COR-L279 (Small Cell Lung Carcinoma)
Summary of the method: as §1

[10] = system: SNU-398 (Hepatocellular Carcinoma)
Summary of the method: as §1

[11] = system: NCI-H526 (Small Cell Lung Carcinoma)
Summary of the method: as §1

[12] = system: CW-2 (Colorectal Carcinoma)
Summary of the method: as §1

[13] = system: KP-3 (Pancreatic Carcinoma)
Summary of the method: as §1

[14] = system: RPMI-8226 (Plasma Cell Myeloma)
Summary of the method: as §1

[15] = system: DAN-G (Pancreatic Carcinoma)
Summary of the method: as §1

[16] = system: DMS-114 (Small Cell Lung Carcinoma)
Summary of the method: as §1

[17] = system: MOLM-13 (Acute Myeloid Leukemia)
Summary of the method: as §1

[18] = system: SK-GT-2 (Gastric Carcinoma)
Summary of the method: as §1

[19] = system: HCC1419 (Breast Carcinoma)
Summary of the method: as §1

| SMILES | Bliss excess [1] | Bliss excess [2] | Bliss excess [3] | Bliss excess [4] | Bliss excess (M059J (Glioblastoma)) | Bliss excess [5] | Bliss excess [6] | Bliss excess [7] | Bliss excess [8] | Bliss excess [9] | Bliss excess [10] | Bliss excess [11] | Bliss excess [12] | Bliss excess [13] | Bliss excess [14] | Bliss excess [15] | Bliss excess [16] | Bliss excess [17] | Bliss excess [18] | Bliss excess [19] |
| --- | --- | --- | --- | --- | --- | --- | --- | --- | --- | --- | --- | --- | --- | --- | --- | --- | --- | --- | --- | --- |
| COc1cc2c(cc1OCCCCCOc1cc3c(cc1OC)C(=O)N1C=C(C)C[C@H]1C=N3)N=C[C@@H]1CC(C)=CN1C2=O [SG3199] + O=C(c1cc(Cc2n[nH]c(=O)c3ccccc23)ccc1F)N1CCN(C(=O)C2CC2)CC1 [Olaparib] (first compound max 0.001 µM, 7x7, partner max 10 µM) | -0.0225 | -0.0051 | -0.0461 | -0.0031 | -0.037 | 0.0202 | -0.0258 | -0.027 | -0.0595 | -0.0351 | -0.0322 | -0.0148 | -0.0126 | -0.0424 | -0.0213 | -0.0266 | -0.0398 | 0.0049 | -0.0066 | -0.119 |
| CCN(CCO)CCCOc1ccc2c(Nc3cc(CC(=O)Nc4cccc(F)c4)[nH]n3)ncnc2c1 [AZD2811] + C=CCn1c(=O)c2cnc(Nc3ccc(N4CCN(C)CC4)cc3)nc2n1-c1cccc(C(C)(C)O)n1 [AZD1775] (first compound max 1 µM, partner max 1 µM) | -0.0037 | 0.044 | -0.0512 | -0.0071 | -0.0176 | 0.122 | -0.0925 | 0.0139 | -0.0281 | 0.0107 | 0.0295 | -0.0226 | -0.0169 | -0.036 | -0.0172 | -0.0144 | -0.0129 | -0.0698 | 0.0008 | -0.0545 |
| CC1(C)CCC(CN2CCN(c3ccc(C(=O)NS(=O)(=O)c4ccc(NCC5CCOCC5)c([N+](=O)[O-])c4)c(Oc4cnc5[nH]ccc5c4)c3)CC2)=C(c2ccc(Cl)cc2)C1 [Venetoclax] + Cn1cnc2c(F)c(Nc3ccc(Br)cc3Cl)c(C(=O)NOCCO)cc21 [Selumetinib] (first compound max 1 µM, 7x7, partner max 3 µM) | -0.0252 | 0.108 | -0.0422 | -0.0184 | -0.0391 | -0.0118 | -0.141 | -0.0478 | -0.0202 | 0.0007 | -0.0003 | -0.011 | 0.0239 | -0.042 | 0.0187 | -0.0459 | -0.0371 | 0.0783 | -0.0251 | -0.0413 |
| CN(C)CCCOc1ccc(-c2ccc3ncc4c(c3c2)n(C2CCOCC2)c(=O)n4C)cn1 [AZD0156] + C[C@@H]1COCCN1C2=NC(=NC(=C2)C3(CC3)[S@](=N)(=O)C)C4=C5C=CNC5=NC=C4 [AZD6738] (first compound max 1 µM, 7x7, partner max 10 µM) | -0.0174 | 0.0247 | -0.0479 | 0.0051 | 0.0092 | 0.117 | 0.0016 | -0.0041 | 0.0568 | -0.0547 | -0.0039 | -0.0051 | -0.0131 | -0.0325 | 0.102 | 0.0425 | -0.0138 | -0.0334 | 0.0033 | -0.0295 |
| COc1nnc2ccc(N3CCC(c4ccc(OCCN5CCN(C)C(=O)[C@H]5C)cc4)CC3)nn12 [AZD5153] + CN(CC[C@H](CSC1=CC=CC=C1)NC2=C(C=C(C=C2)S(=O)(=O)NC(=O)C3=CC=C(C=C3)N4CCC(CC4)[C@H](C5=CC=CC=C5C6=CC=C(C=C6)Cl)O)S(=O)(=O)C(F)(F)F)CCO [AZD4320] (first compound max 1 µM, 7x7, partner max 1 µM) |  | -0.0077 |  | 0.0185 |  | 0.0143 |  |  |  |  | -0.0093 |  |  |  | -0.0027 | 0.0358 |  | 0.0205 | 0.0412 | -0.0403 |
| Cc1c2c(nn1C)CSCc1cc(n(C)n1)CSc1cc(c3ccccc3c1)OCCCc1c(C(=O)O)n(C)c3c-2c(Cl)ccc13 [AZD5991] + C[C@@H]1COCCN1C2=NC(=NC(=C2)C3(CC3)[S@](=N)(=O)C)C4=C5C=CNC5=NC=C4 [AZD6738] (first compound max 1 µM, 7x7, partner max 10 µM) | 0.0573 | 0.0181 | 0.0308 | 0.0148 | -0.0165 | -0.009 | 0.0248 | -0.0081 | 0.0289 | -0.0057 | 0.0504 | 0.0188 | 0.0514 | 0.0405 | 0.008 | 0.0265 | 0.0436 | 0.0037 | 0.026 | -0.0091 |
| COc1cccc(OCCCN)c1-c1cc(Nc2cnc(C#N)cn2)n[nH]1 [Prexasertib] + Cc1cc2ncnn2cc1Nc1ncc2c(n1)n(C1CCOCC1)c(=O)n2C [AZD7648] (first compound max 1 µM, 7x7, partner max 10 µM) | -0.0331 | -0.0406 | -0.0074 | 0.0131 | -0.0178 | 0.0085 | -0.0289 | 0.0271 | -0.0355 | 0.0225 | 0.0353 | -0.0038 | 0.043 | 0.0141 | -0.0936 | -0.0095 | 0.0127 | -0.0094 | -0.0454 | -0.0211 |
| Cc1c2c(nn1C)CSCc1cc(n(C)n1)CSc1cc(c3ccccc3c1)OCCCc1c(C(=O)O)n(C)c3c-2c(Cl)ccc13 [AZD5991] + C1CN(CCC1(C(=O)N[C@@H](CCO)C2=CC=C(C=C2)Cl)N)C3=NC=NC4=C3C=CN4 [Capivasertib] (first compound max 1 µM, 7x7, partner max 3 µM) | 0.076 | -0.0025 | -0.0347 | -0.0111 | -0.101 | 0.0127 |  | 0.0165 | 0.0421 | 0.0417 | 0.034 | 0.0139 | 0.0132 | -0.0102 | 0.0079 | -0.0535 | 0.0696 | -0.002 | -0.0049 | 0.0163 |
| COc1cccc(OCCCN)c1-c1cc(Nc2cnc(C#N)cn2)n[nH]1 [Prexasertib] + CN(C)CCCOc1ccc(-c2ccc3ncc4c(c3c2)n(C2CCOCC2)c(=O)n4C)cn1 [AZD0156] (first compound max 1 µM, 7x7, partner max 1 µM) | 0.0017 | -0.0513 | -0.0279 | -0.0089 | -0.0826 | 0.0343 | -0.0139 | -0.0077 | -0.0024 | 0.0053 | 0.0501 | -0.0158 | 0.0498 | 0.0021 | -0.0048 | -0.0132 | 0.0778 | -0.0248 | -0.0519 | -0.0285 |
| CN(CCO)CC[C@H](CSc1ccccc1)Nc1ccc(S(=O)(=O)NC(=O)c2ccc(N3CCC([C@@H](O)c4ccccc4-c4ccc(Cl)cc4)CC3)cc2)cc1S(=O)(=O)C(F)(F)F [AZD4320] + C[C@@H](Nc1cc(F)cc(F)c1)c1cc(C(=O)N(C)C)cc2c(=O)cc(N3CCOCC3)oc12 [AZD8186] (first compound max 1 µM, 7x7, partner max 3 µM) | 0.0346 | 0.0179 | -0.0096 | 0.0411 | 0.0316 | 0.0652 | 0.0176 | -0.0104 | 0.0225 | 0.0217 | 0.0201 | 0.0434 | -0.0073 | 0.0002 | 0.0151 | 0.0484 | -0.0096 | 0.0619 | 0.0296 | 0.0282 |
| CN(CCO)CC[C@H](CSc1ccccc1)Nc1ccc(S(=O)(=O)NC(=O)c2ccc(N3CCC([C@@H](O)c4ccccc4-c4ccc(Cl)cc4)CC3)cc2)cc1S(=O)(=O)C(F)(F)F [AZD4320] + C=CCn1c(=O)c2cnc(Nc3ccc(N4CCN(C)CC4)cc3)nc2n1-c1cccc(C(C)(C)O)n1 [AZD1775] (first compound max 1 µM, partner max 1 µM) | 0.0045 | 0.0733 | -0.0418 | 0.0033 | 0.0448 | 0.0716 | -0.0447 | -0.0058 | 0.0126 | 0.0798 | -0.0291 | 0.0367 | 0.0032 | -0.0417 | 0.0467 | 0.0078 | 0.0074 | 0.0252 | 0.0322 | -0.0722 |
| C=CCn1c(=O)c2cnc(Nc3ccc(N4CCN(C)CC4)cc3)nc2n1-c1cccc(C(C)(C)O)n1 [AZD1775] + C1CN(CCC1(C(=O)N[C@@H](CCO)C2=CC=C(C=C2)Cl)N)C3=NC=NC4=C3C=CN4 [Capivasertib] (first compound max 3 µM, partner max 3 µM) | 0.0254 | 0.0073 | -0.083 | -0.101 | -0.064 | 0.0629 | 0.0215 | -0.0565 |  | -0.0276 | 0.0054 | -0.06 | -0.0487 | 0.0131 | 0.0216 | -0.0191 | -0.0132 | 0.0263 | 0.0174 | -0.005 |
| CN(CCO)CC[C@H](CSc1ccccc1)Nc1ccc(S(=O)(=O)NC(=O)c2ccc(N3CCC([C@@H](O)c4ccccc4-c4ccc(Cl)cc4)CC3)cc2)cc1S(=O)(=O)C(F)(F)F [AZD4320] + C[C@@H]1COCCN1C2=NC(=NC(=C2)C3(CC3)[S@](=N)(=O)C)C4=C5C=CNC5=NC=C4 [AZD6738] (first compound max 1 µM, 7x7, partner max 10 µM) | -0.0331 | 0.0245 | -0.0331 | -0.0298 |  | 0.0012 | -0.0502 | -0.0472 | 0.0161 | 0.0292 | -0.0452 | -0.0302 | -0.0321 | -0.042 | 0.0338 | -0.0315 | 0.0073 | 0.0272 | 0.0109 | -0.0752 |
| C[C@@H](c1ccc2nccn2c1)n1nnc2ncc(-c3cnn(C)c3)nc21 [Savolitinib] + CN(CC[C@H](CSC1=CC=CC=C1)NC2=C(C=C(C=C2)S(=O)(=O)NC(=O)C3=CC=C(C=C3)N4CCC(CC4)[C@H](C5=CC=CC=C5C6=CC=C(C=C6)Cl)O)S(=O)(=O)C(F)(F)F)CCO [AZD4320] (first compound max 1 µM, 7x7, partner max 1 µM) |  | -0.0182 |  | -0.0719 |  | -0.0005 |  |  |  |  | -0.0665 |  |  |  | -0.0379 | -0.0378 |  | 0.0288 | -0.0294 | -0.0736 |
